Laboratory results taken from patent publication US20260015350A1, “AZAQUINAZOLINE PAN-KRAS INHIBITORS” (Mirati Therapeutics, Inc., priority 2022, published 2026).

Key:
[1] = system: KRas-mediated phosphorylation of ERK in H460 cells; test: Inhibition of KRas-mediated phosphorylation of ERK (Cisbio HTRF pERK), H460 cells; format: cell-based; details: Homo sapiens; for IC50: NCI-H460, HTRF pERK
Outline: (§1)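 Signal read by HTRF (d2/Cryptate antibody pair, 2 hr room-temperature incubation on lysate). Cells: 6,000 per well, 3 hr compound exposure. Titration: 10 uM highest, 3-fold, 10 points.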

[2] = system: KRas-mediated phosphorylation of ERK in PSN1 cells; test: Inhibition of KRas-mediated phosphorylation of ERK (Cisbio HTRF pERK), PSN1 cells; format: cell-based; details: Homo sapiens
Outline: (§2)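 Overnight culture at 37° C./5% CO2 in RPMI containing 10% FBS, seeded 6,000 cells per well, preceded the assay. A covered 4-hour incubation at room temperature followed, then HTRF signal for phosphorylated ERK was measured.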

[3] = system: KRas-mediated phosphorylation of ERK in MKN1 cells; test: Inhibition of KRas-mediated phosphorylation of ERK (Cisbio HTRF pERK), MKN1 cells; format: cell-based; details: Homo sapiens, MKN-1
Outline: as §2

KRas^G12A = molecular target: T1, KRas^G12A (Homo sapiens, UniProt P01116, G12A); test: KRas binding assay (TR-FRET tracer displacement), KRas G12A; details: single point, 10 nM compound, TR-FRET
T1 construct: Biotinylated KRas (corresponding to amino acids 1-169, produced at Accelegan Inc.); biotin (biotinylated); purchased Accelegan Inc
T1 sequence (P01116 1-169 isoform P01116-2 G12A): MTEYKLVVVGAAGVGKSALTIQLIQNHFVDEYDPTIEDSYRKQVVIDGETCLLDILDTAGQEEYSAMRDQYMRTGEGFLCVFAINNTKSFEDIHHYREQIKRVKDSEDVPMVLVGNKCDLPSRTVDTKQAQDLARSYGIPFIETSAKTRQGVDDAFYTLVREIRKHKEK

KRas^G13D = molecular target: T2, KRas^G13D (Homo sapiens, UniProt P01116, G13D); test: KRas binding assay (TR-FRET tracer displacement), KRas G13D; details: single point, 10 nM compound, TR-FRET
T2 construct: Biotinylated KRas (corresponding to amino acids 1-169, produced at Accelegan Inc.); biotin (biotinylated); purchased Accelegan Inc
T2 sequence (P01116 1-169 isoform P01116-2 G13D): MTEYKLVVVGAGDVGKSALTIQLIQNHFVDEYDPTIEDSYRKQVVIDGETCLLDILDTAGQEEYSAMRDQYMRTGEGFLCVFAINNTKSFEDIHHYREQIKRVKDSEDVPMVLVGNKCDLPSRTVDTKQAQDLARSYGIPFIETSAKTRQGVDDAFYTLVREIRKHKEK

KRas^WT = molecular target: T3, KRas^WT (Homo sapiens, UniProt P01116); test: KRas binding assay (TR-FRET tracer displacement), KRas WT; details: single point, 10 nM compound, TR-FRET
T3 construct: Biotinylated KRas (corresponding to amino acids 1-169, produced at Accelegan Inc.); biotin (biotinylated); purchased Accelegan Inc
T3 sequence (P01116 1-169 isoform P01116-2): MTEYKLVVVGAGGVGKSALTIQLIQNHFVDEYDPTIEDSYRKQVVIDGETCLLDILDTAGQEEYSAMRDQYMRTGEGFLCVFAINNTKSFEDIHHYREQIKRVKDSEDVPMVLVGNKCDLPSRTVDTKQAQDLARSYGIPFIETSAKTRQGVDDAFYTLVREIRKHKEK

KRas^Q61H = molecular target: T4, KRas^Q61H (Homo sapiens, UniProt P01116, Q61H); test: KRas binding assay (TR-FRET tracer displacement), KRas Q61H; details: single point, 10 nM compound, TR-FRET
T4 construct: Biotinylated KRas (corresponding to amino acids 1-169, produced at Accelegan Inc.); biotin (biotinylated); purchased Accelegan Inc
T4 sequence (P01116 1-169 isoform P01116-2 Q61H): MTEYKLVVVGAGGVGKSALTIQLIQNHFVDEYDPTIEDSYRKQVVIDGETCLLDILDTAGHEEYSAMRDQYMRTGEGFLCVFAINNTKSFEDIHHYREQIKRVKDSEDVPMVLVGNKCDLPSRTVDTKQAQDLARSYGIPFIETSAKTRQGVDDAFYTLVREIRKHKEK

KRas^G12R = molecular target: T5, KRas^G12R (Homo sapiens, UniProt P01116, G12R); test: KRas binding assay (TR-FRET tracer displacement), KRas G12R
T5 construct: Biotinylated KRas (corresponding to amino acids 1-169, produced at Accelegan Inc.); biotin (biotinylated); purchased Accelegan Inc
T5 sequence (P01116 1-169 isoform P01116-2 G12R): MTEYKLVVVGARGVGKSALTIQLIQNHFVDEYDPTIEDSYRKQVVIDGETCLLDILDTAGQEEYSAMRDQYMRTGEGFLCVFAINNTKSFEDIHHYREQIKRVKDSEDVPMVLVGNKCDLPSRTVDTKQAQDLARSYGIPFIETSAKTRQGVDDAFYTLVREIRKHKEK

[4] = system: KRas-mediated phosphorylation of ERK in AsPC-1 cells; test: Inhibition of KRas-mediated phosphorylation of ERK (Cisbio HTRF pERK), AsPC-1 cells; format: cell-based; details: Homo sapiens, ASPC1, AsPC-1 cells; HTRF pERK
Outline: as §1

KRas^G12S = molecular target: T6, KRas^G12S (Homo sapiens, UniProt P01116, G12S); test: KRas binding assay (TR-FRET tracer displacement), KRas G12S; details: single point, 10 nM compound, TR-FRET
T6 construct: Biotinylated KRas (corresponding to amino acids 1-169, produced at Accelegan Inc.); biotin (biotinylated); purchased Accelegan Inc
T6 sequence (P01116 1-169 isoform P01116-2 G12S): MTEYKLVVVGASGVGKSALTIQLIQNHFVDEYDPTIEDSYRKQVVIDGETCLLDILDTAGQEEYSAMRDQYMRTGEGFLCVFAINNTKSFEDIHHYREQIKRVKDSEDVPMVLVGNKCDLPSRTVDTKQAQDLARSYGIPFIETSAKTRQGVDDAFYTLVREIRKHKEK

[5] = system: KRas-mediated phosphorylation of ERK in H727 cells; test: Inhibition of KRas-mediated phosphorylation of ERK (Cisbio HTRF pERK), H727 cells; format: cell-based; details: Homo sapiens, NCI-H727, H727 cells; HTRF pERK
Outline: as §1

KRas^G12V = molecular target: T7, KRas^G12V (Homo sapiens, UniProt P01116, G12V); test: KRas binding assay (TR-FRET tracer displacement), KRas G12V
T7 construct: Biotinylated KRas (corresponding to amino acids 1-169, produced at Accelegan Inc.); biotin (biotinylated); purchased Accelegan Inc
T7 sequence (P01116 1-169 isoform P01116-2 G12V): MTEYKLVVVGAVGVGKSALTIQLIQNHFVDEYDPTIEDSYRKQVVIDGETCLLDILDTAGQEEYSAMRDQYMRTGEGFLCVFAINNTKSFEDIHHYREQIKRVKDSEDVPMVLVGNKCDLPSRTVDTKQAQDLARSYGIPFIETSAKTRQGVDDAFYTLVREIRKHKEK

KRas^G12C = molecular target: T8, KRas^G12C (Homo sapiens, UniProt P01116, G12C); test: KRas binding assay (TR-FRET tracer displacement), KRas G12C; details: single point, 10 nM compound, TR-FRET
T8 construct: Biotinylated KRas (corresponding to amino acids 1-169, produced at Accelegan Inc.); biotin (biotinylated); purchased Accelegan Inc
T8 sequence (P01116 1-169 isoform P01116-2 G12C): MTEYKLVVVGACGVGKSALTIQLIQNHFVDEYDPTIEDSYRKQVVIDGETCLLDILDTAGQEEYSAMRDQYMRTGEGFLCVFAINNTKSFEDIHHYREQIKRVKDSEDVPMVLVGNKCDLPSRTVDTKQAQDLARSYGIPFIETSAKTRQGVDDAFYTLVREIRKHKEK

KRas^G12D = molecular target: T9, KRas^G12D (Homo sapiens, UniProt P01116, G12D); test: KRas binding assay (TR-FRET tracer displacement), KRas G12D
T9 construct: Biotinylated KRas (corresponding to amino acids 1-169, produced at Accelegan Inc.); biotin (biotinylated); purchased Accelegan Inc
T9 sequence (P01116 1-169 isoform P01116-2 G12D): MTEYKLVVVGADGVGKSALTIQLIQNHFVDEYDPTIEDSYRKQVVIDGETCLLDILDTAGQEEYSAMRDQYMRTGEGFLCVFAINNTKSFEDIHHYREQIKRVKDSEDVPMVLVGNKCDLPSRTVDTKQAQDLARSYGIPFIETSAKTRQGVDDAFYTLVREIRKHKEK

[6] = system: KRas-mediated phosphorylation of ERK in H358 cells; test: Inhibition of KRas-mediated phosphorylation of ERK (Cisbio HTRF pERK), H358 cells; format: cell-based; details: Homo sapiens; for inhibition at 0.1 µM: NCI-H358, 3 h, single point, 100 nM compound, 3 hrs
Outline: as §1

[7] = system: KRas-mediated phosphorylation of ERK in A549 cells; test: Inhibition of KRas-mediated phosphorylation of ERK (Cisbio HTRF pERK), A549 cells; format: cell-based; details: Homo sapiens; for inhibition at 0.1 µM: A549, 3 h, single point, 100 nM compound, 3 hrs
Outline: (§3)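 A cell-based HTRF pERK assay: ten-point, threefold titrations beginning at 10 uM were applied for 3 hrs, with 0.2 uM Trametinib wells as the minimum control. Cells were lysed cold, and lysate was incubated with the antibody pair for 2 hrs before reading.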

[8] = system: KRas-mediated phosphorylation of ERK in HCT116 cells; test: Inhibition of KRas-mediated phosphorylation of ERK (Cisbio HTRF pERK), HCT116 cells; format: cell-based; details: Homo sapiens
Outline: as §3

| IC50 [1] [nM] | IC50 [2] [nM] | IC50 [3] [nM] | inhibition at 0.01 µM (KRas^G12A) [%] | inhibition at 0.01 µM (KRas^G13D) [%] | inhibition at 0.01 µM (KRas^WT) [%] | inhibition at 0.01 µM (KRas^Q61H) [%] | IC50 (KRas^G12R) [nM] | IC50 [4] [nM] | inhibition at 0.01 µM (KRas^G12S) [%] | IC50 [5] [nM] | IC50 (KRas^G12V) [nM] | inhibition at 0.01 µM (KRas^G12C) [%] | IC50 (KRas^G12D) [nM] | Compound | inhibition at 0.1 µM [6] [%] | inhibition at 0.1 µM [7] [%] | also measured |
| --- | --- | --- | --- | --- | --- | --- | --- | --- | --- | --- | --- | --- | --- | --- | --- | --- | --- |
| 51 | 7520 | 16 | 49 | 76 | 68 | 70 | 10 | 49 | 58 | 263 | 7 | 56 | 4 | CCc1c(F)ccc2cc(O)cc(-c3ncc4c(N5CCCCC(C#N)C5)nc(OC[C@@]56CCCN5C[C@H](F)C6)nc4c3F)c12 (stereo partly drawn) [Example 547, 1-(7-(8-ethyl-7-fluoro-3-hydroxynaphthalen-1-yl)-8-fluoro-2-(((2R,7aS)-2-fluorohexahydro-1H-pyrrolizin-7a-yl)methoxy)pyrido[4,3-d]pyrimidin-4-yl)azepane-3-carbonitrile] | 20 | 33 |  |
| 348 | 1320 | 4 | 83 | 96 | 91 | 96 |  | 412 | 93 | 948 |  | 97 |  | CCc1c(F)ccc2cc(O)cc(-c3ncc4c(N5CCC[C@@]6(CCO6)C5)nc(OCC5(CN(C)C)CC5)nc4c3F)c12 [Example 700, (R)-4-(2-((1-((dimethylamino)methyl)cyclopropyl)methoxy)-8-fluoro-4-(1-oxa-6-azaspiro[3.5]nonan-6-yl)pyrido[4,3-d]pyrimidin-7-yl)-5-ethyl-6-fluoronaphthalen-2-ol] | 103 | 83 | inhibition at 0.1 µM ([1]; NCI-H460, 3 h, single point, 100 nM compound, 3 hrs): 96%; inhibition at 0.1 µM ([8]; HCT-116, 3 h, single point, 100 nM compound, 3 hrs): 86%; IC50 ([8]; HCT-116, HTRF pERK): 784 nM; IC50 ([6]; NCI-H358, HTRF pERK): 209 nM; IC50 ([7]; HTRF pERK): 468 nM |
| 22 | 2710 | 12 | 88 | 90 | 86 | 90 | < 2 | 15 | 90 | 30 | < 2 | 94 | 2 | CCc1c(F)ccc2cc(O)cc(-c3ncc4c(N5CCC[C@]6(C5)C[C@H](O)C6)nc(OC[C@@]56CCCN5[C@H](COC(=O)N(C)C)CC6)nc4c3F)c12 [Example 712, ((3S,7aS)-7a-(((7-(8-ethyl-7-fluoro-3-hydroxynaphthalen-1-yl)-8-fluoro-4-((2R,4r)-2-hydroxy-6-azaspiro[3.5]nonan-6-yl)pyrido[4,3-d]pyrimidin-2-yl)oxy)methyl)hexahydro-1H-pyrrolizin-3-yl)methyl dimethylcarbamate] | 95 | 52 |  |
| 102 | 3580 | 22 | 74 | 67 | 66 | 69 | 4 | 73 | 76 | 59 | 2 | 81 | 3 | CCc1c(F)ccc2cc(O)cc(-c3ncc4c(N5CCC[C@]6(C5)C[C@@H](O)C6)nc(OC[C@@]56CCCN5[C@H](COC(=O)N(C)C)CC6)nc4c3F)c12 [Example 713, ((3S,7aS)-7a-(((7-(8-ethyl-7-fluoro-3-hydroxynaphthalen-1-yl)-8-fluoro-4-((2S,4s)-2-hydroxy-6-azaspiro[3.5]nonan-6-yl)pyrido[4,3-d]pyrimidin-2-yl)oxy)methyl)hexahydro-1H-pyrrolizin-3-yl)methyl dimethylcarbamate] | 60 | 25 |  |
